Source: patent EP0565593B1, “REDUCING PESTICIDAL INTERACTIONS IN CROPS” (priority 1990, dated 1992)
“And” between values parts separate entries of the source, which are not always exact repeats. Equal entries are not always repeated. Where two headings read alike, the source gives them in different places.

Experiments:
Velvetleaf (VELE) = assay type: in vivo, Abutilon theophrasti
Giant foxtail (GIFT) = assay: whole plant or invertebrate; assay type: in vivo; conditions: in vivo
Shattercane (SHCA) = assay type: in vivo
[1] = Antidote 8.96 + Biocide No. 1 8.96 Kg/Ha PPI, Herb. No. 8 0.07, 5 DAP, before herbicide application
[2] = Antidote 8.96 + Biocide No. 1 8.96 Kg/Ha PPI, Herb. No. 8 0.07 POE, 13 DAP
[3] = Antidote 8.96 + Biocide No. 1 8.96 Kg/Ha PPI, Herbicide No. 7 0.28 POE, 13 days after planting
[4] = Herb. […], 5 DAP, before herbicide application
[5] = Table 14: Herbicide No. 7 (ACCENT) 0.84 Kg/Ha POE + Biocide No. 2 8.96 Kg/Ha PPI + antidote 8.96 Kg/Ha PPI, 13 days after planting, 8 days after herbicide
[6] = […], 13 days after planting, 8 days after herbicide
[7] = […], observed 10 days after herbicide application
[8] = Herb. […], 13 DAP, after herbicide application
[9] = Antidote 4.48 + Biocide No. 1 8.96 Kg/Ha PPI, Herb. No. 8 0.07, 5 DAP, before herbicide application
[10] = Antidote 4.48 + Biocide No. 1 8.96 Kg/Ha PPI, Herb. No. 8 0.07 POE, 13 DAP
[11] = Antidote 4.48 + Biocide No. 1 8.96 Kg/Ha PPI, Herbicide No. 7 0.28 POE, 13 days after planting
[12] = Table 14: Herbicide No. 7 (ACCENT) 0.84 Kg/Ha POE + Biocide No. 2 8.96 Kg/Ha PPI + antidote 4.48 Kg/Ha PPI, 13 days after planting, 8 days after herbicide

SMILES: CC(N=C1SCC(=C(Cl)Cl)S1)c1ccccc1 (stereo not drawn) [compound 4]
- % Inhibition 5 DAP VELE (Velvetleaf (VELE); [1]): 0%
- % Inhibition 13 DAP VELE (Velvetleaf (VELE); [2]): 90%
- % Inhibition VELE (Velvetleaf (VELE); [3]): 70%
- % Inhibition 5 DAP VELE (Velvetleaf (VELE); [4]): 0%
- % Inhibition VELE (Velvetleaf (VELE); [5]): 65%
- % Inhibition VELE (Velvetleaf (VELE); [6]): 70%
- % Inhibition VELE (Velvetleaf (VELE); [7]): 80%
- % Inhibition 5 DAP VELE (Velvetleaf (VELE); in vivo): 0%
- % Inhibition 13 DAP VELE (Velvetleaf (VELE); in vivo): 90%
- % Inhibition GIFT (Giant foxtail (GIFT)): 50% and 65% and 60% and 90% and 55%
- % Inhibition 5 DAP Corn (Corn; [1]): 10%
- % Inhibition 13 DAP Corn (Corn; [2]): 60%
- % Inhibition Corn (Corn; [3]): 50%
- % Inhibition 5 DAP Corn (Corn; [4]): 0%
- % Inhibition Corn (Corn; [5]): 15%
- % Inhibition Corn (Corn; [6]): 25%
- % Inhibition Corn (Corn; [7]): 65%
- % Inhibition 5 DAP Corn (Corn; in vivo): 15%
- % Inhibition 13 DAP Corn (Corn; in vivo): 30%
- % Inhibition 5 DAP SHCA (Shattercane (SHCA); [1]): 10%
- % Inhibition 13 DAP SHCA (Shattercane (SHCA); [2]): 85%
- % Inhibition SHCA (Shattercane (SHCA); [3]): 75%
- % Inhibition 5 DAP SHCA (Shattercane (SHCA); [4]): 0%
- % Inhibition 13 DAP SHCA (Shattercane (SHCA); [8]): 90%
- % Inhibition SHCA (Shattercane (SHCA); [5]): 70%
- % Inhibition SHCA (Shattercane (SHCA); [6]): 90%
- % Inhibition SHCA (Shattercane (SHCA); [7]): 65%
- % Inhibition 5 DAP SHCA (Shattercane (SHCA); in vivo): 30%
- % Inhibition 13 DAP SHCA (Shattercane (SHCA); in vivo): 65%
- % Inhibition SHCA (Shattercane (SHCA); in vivo): 70% and 55% and 60% and 45%

SMILES: C=CCSC(=S)N(C)c1ccccc1 [compound 29]
- % Inhibition 5 DAP VELE (Velvetleaf (VELE); [9]): 0%
- % Inhibition 13 DAP VELE (Velvetleaf (VELE); [10]): 95%
- % Inhibition VELE (Velvetleaf (VELE); [11]): 70%
- % Inhibition 5 DAP VELE (Velvetleaf (VELE); [4]): 0%
- % Inhibition VELE (Velvetleaf (VELE); [12]): 70%
- % Inhibition VELE (Velvetleaf (VELE); [6]): 65%
- % Inhibition VELE (Velvetleaf (VELE); [7]): 75%
- % Inhibition 5 DAP VELE (Velvetleaf (VELE); in vivo): 20%
- % Inhibition 13 DAP VELE (Velvetleaf (VELE); in vivo): 95%
- % Inhibition GIFT (Giant foxtail (GIFT)): 55% and 75% and 65% and 95%
- % Inhibition 5 DAP Corn (Corn; [9]): 0%
- % Inhibition 13 DAP Corn (Corn; [10]): 65%
- % Inhibition Corn (Corn; [11]): 60%
- % Inhibition 5 DAP Corn (Corn; [4]): 0%
- % Inhibition Corn (Corn; [12]): 35%
- % Inhibition Corn (Corn; [6]): 35%
- % Inhibition Corn (Corn; [7]): 75%
- % Inhibition 5 DAP Corn (Corn; in vivo): 35%
- % Inhibition 13 DAP Corn (Corn; in vivo): 65%
- % Inhibition 5 DAP SHCA (Shattercane (SHCA); [9]): 40%
- % Inhibition 13 DAP SHCA (Shattercane (SHCA); [10]): 80%
- % Inhibition SHCA (Shattercane (SHCA); [11]): 70%
- % Inhibition 5 DAP SHCA (Shattercane (SHCA); [4]): 10%
- % Inhibition SHCA (Shattercane (SHCA); [12]): 80%
- % Inhibition SHCA (Shattercane (SHCA); [6]): 85%
- % Inhibition SHCA (Shattercane (SHCA); [7]): 60%
- % Inhibition 5 DAP SHCA (Shattercane (SHCA); in vivo): 40%
- % Inhibition 13 DAP SHCA (Shattercane (SHCA); in vivo): 85%
- % Inhibition SHCA (Shattercane (SHCA); in vivo): 80% and 75% and 65% and 45%

SMILES: Clc1cc(Cl)nc(-c2ccccc2)n1 [compound 31]
- % Inhibition 5 DAP VELE (Velvetleaf (VELE); [9]): 0%
- % Inhibition 13 DAP VELE (Velvetleaf (VELE); [10]): 85%
- % Inhibition VELE (Velvetleaf (VELE); [11]): 65%
- % Inhibition 5 DAP VELE (Velvetleaf (VELE); [4]): 0%
- % Inhibition 13 DAP VELE (Velvetleaf (VELE); [8]): 95%
- % Inhibition VELE (Velvetleaf (VELE); [12]): 65%
- % Inhibition VELE (Velvetleaf (VELE); [6]): 65%
- % Inhibition VELE (Velvetleaf (VELE); [7]): 80%
- % Inhibition 5 DAP VELE (Velvetleaf (VELE); in vivo): 0%
- % Inhibition 13 DAP VELE (Velvetleaf (VELE); in vivo): 85%
- % Inhibition GIFT (Giant foxtail (GIFT)): 55% and 80% and 85% and 75% and 95% and 60%
- % Inhibition 5 DAP Corn (Corn; [9]): 10%
- % Inhibition 13 DAP Corn (Corn; [10]): 75%
- % Inhibition Corn (Corn; [11]): 65%
- % Inhibition 5 DAP Corn (Corn; [4]): 0%
- % Inhibition Corn (Corn; [12]): 45%
- % Inhibition Corn (Corn; [6]): 30%
- % Inhibition Corn (Corn; [7]): 70%
- % Inhibition 5 DAP Corn (Corn; in vivo): 15%
- % Inhibition 13 DAP Corn (Corn; in vivo): 65%
- activity in reducing corn injury (Corn; primisulfuron POE + biocides PPI, Tables 8-10): either inactive or weakly active
- % Inhibition 5 DAP SHCA (Shattercane (SHCA); [9]): 0%
- % Inhibition 13 DAP SHCA (Shattercane (SHCA); [10]): 80%
- % Inhibition SHCA (Shattercane (SHCA); [11]): 75%
- % Inhibition 5 DAP SHCA (Shattercane (SHCA); [4]): 0%
- % Inhibition SHCA (Shattercane (SHCA); [12]): 75%
- % Inhibition SHCA (Shattercane (SHCA); [6]): 85%
- % Inhibition SHCA (Shattercane (SHCA); [7]): 65%
- % Inhibition 5 DAP SHCA (Shattercane (SHCA); in vivo): 20%
- % Inhibition 13 DAP SHCA (Shattercane (SHCA); in vivo): 80%
- % Inhibition SHCA (Shattercane (SHCA); in vivo): 85% and 50% and 60% and 45%
